# According to ChEMBL document CHEMBL4706557, “Synthesis and in vitro and in vivo biological evaluation of novel derivatives of flexicaulin A as antiproliferative agents” (Eur J Med Chem, 2020):
# Active and inactive are the calls of the source. The rule behind the calls is not given here.
# Experiments:
# ECa-109 cell line [1] = experiment: Induction of apoptosis in human EC-109 cells xenografted in BALB/c mouse assessed as increase in phosphorylated JNK in tumor tissue at 20 to 40 mg/kg, ip QD for 14 days by Western blotting analysis; format: functional, organism-based; conditions: dose 20-40 mg/kg, time 14.0 day
# [2] = Toxicity in nude BALB/c mouse xenografted with human EC109 cells assessed as change in body weight at 20 to 40 mg/kg, ip administered every day for 14 days; format: organism-based; conditions: in vivo, 336 h, dose 20-40 mg/kg, time 14 day
# ECa-109 cell line [3] = experiment: Induction of apoptosis in human EC109 cells assessed as change in phosphorylated ASK1 expression at 3 uM incubated for 24 hrs in presence of N-acetylcysteine by Western blot analysis; format: functional, cell-based
# HUVEC [4] = experiment: Cytotoxicity against HUVEC assessed as reduction in survival rate at 0 to 8 uM by SRB assay; format: cell-based; conditions: human, TDE = time-dependent effect, dose 0-8 µM
# ECa-109 cell line [5] = experiment: Induction of apoptosis in human EC109 cells assessed as increase in phosphorylated JNK expression incubated for 24 hrs by Western blot analysis; format: functional, cell-based
# ECa-109 cell line [6] = experiment: Induction of apoptosis in human EC109 cells assessed as increase in intracellular ROS level at 3 uM incubated for 24 hrs by DCFH-DA staining based flow cytometry analysis (reference value: 0.6 %); format: functional
# ECa-109 cell line [7] = experiment: Induction of apoptosis in human EC-109 cells xenografted in BALB/c mouse assessed as change in Bax expression in tumor tissue at 40 mg/kg, ip QD for 14 days by Western blotting analysis relative to control; format: functional, organism-based; conditions: time 14.0 day
# ECa-109 cell line [8] = experiment: Induction of apoptosis in human EC-109 cells assessed as apoptotic rate at 1.5 uM after 48 hrs by Annexin V-FITC/propidium iodide staining based flow cytometry (reference value: 3.2 %); format: functional
# HUVEC [9] = experiment: Cytotoxicity against HUVEC assessed as reduction in survival rate after 24 to 72 hrs by SRB assay; format: cell-based; conditions: human, time 24-72 hrs
# ECa-109 cell line [10] = experiment: Induction of apoptosis in human EC-109 cells assessed as apoptotic rate at 3 uM after 24 hrs by Annexin V-FITC/propidium iodide staining based flow cytometry (reference value: 5.7 %); format: functional
# [11] = Toxicity in BALB/c mouse assessed as effect on red pulp and white pulp distribution in spleen at 20 to 40 mg/kg, ip administered once daily for 14 days by HE staining based assay; format: organism-based; conditions: in vivo, 336 h, dose 20-40 mg/kg, time 14 day
# [12] = Toxicity in BALB/c mouse assessed as abnormalities in liver at 20 to 40 mg/kg, ip administered once daily for 14 days by HE staining based assay; format: organism-based; conditions: in vivo, 336 h, dose 20-40 mg/kg, time 14 day
# ECa-109 cell line [13] = experiment: Antiproliferative activity against human EC109 cells assessed as reduction in survival rate at 0 to 8 uM by SRB assay; format: functional, cell-based; conditions: dose 0-8 µM, TDE = time-dependent effect
# ECa-109 cell line [14] = experiment: Induction of apoptosis in human EC-109 cells xenografted in nude BALB/c mouse assessed as apparent cellular loosening at 20 to 40 mg/kg, ip administered once daily for 14 days by H and E staining based histopathological analysis; format: functional, organism-based; conditions: dose 20-40 mg/kg, time 14.0 day
# ECa-109 cell line [15] = experiment: Induction of apoptosis in human EC-109 cells assessed as apoptotic rate at 3 uM preincubated with N-acetylcysteine for 4 hrs followed by compound addition and measured after 24 hrs by Annexin V-FITC/propidium iodide staining based flow cytometry (reference value: 5.7 %); format: functional
# ECa-109 cell line [16] = experiment: Induction of apoptosis in human EC109 cells assessed as increase in phosphorylated MKK4 expression incubated for 24 hrs by Western blot analysis; format: functional, cell-based
# ECa-109 cell line [17] = experiment: Induction of apoptosis in human EC-109 cells assessed as apoptotic rate at 0.75 uM after 24 hrs by Annexin V-FITC/propidium iodide staining based flow cytometry (reference value: 5.3 %); format: functional
# MCF7 = experiment: Antiproliferative activity against human MCF7 cells assessed as inhibition of cell growth incubated for 72 hrs by SRB assay; format: functional, cell-based; conditions: MCF7, 72 h
# ECa-109 cell line [18] = experiment: Induction of apoptosis in human EC109 cells assessed as increase in cleaved PARP expression after 24 hrs by Western blot analysis; format: functional, cell-based
# ECa-109 cell line [19] = experiment: Induction of apoptosis in human EC109 cells assessed as activation of c-jun phosphorylation at Ser63 residue at 0.75 to 3 uM incubated for 24 hrs by Western blot analysis; format: functional, cell-based; conditions: dose 0.75-3 µM
# [20] = Toxicity in BALB/c mouse assessed as RDW at 20 mg/kg, ip administered once daily for 14 days (reference value: 14.18 +/- 0.26 %); format: organism-based; conditions: in vivo, 336 h, time 14 day
# [21] = Toxicity in BALB/c mouse assessed as effect on WBC level at 40 mg/kg, ip administered once daily for 14 days (reference value: 4.42 +/- 0.79 10^9/L); format: organism-based; conditions: in vivo, 336 h, time 14 day
# ECa-109 cell line [22] = experiment: Induction of apoptosis in human EC-109 cells xenografted in nude BALB/c mouse assessed as nuclear shrinkage at 20 to 40 mg/kg, ip administered once daily for 14 days by H and E staining based histopathological analysis; format: functional, organism-based; conditions: dose 20-40 mg/kg, time 14.0 day
# TE-1 = experiment: Antiproliferative activity against human TE-1 cells assessed as inhibition of cell growth incubated for 72 hrs by SRB assay; format: functional, cell-based; conditions: TE-1, 72 h
# ECa-109 cell line [23] = experiment: Induction of apoptosis in human EC109 cells assessed as increase in intracellular ROS level at 3 uM preincubated with N-acetylcysteine for 4 hrs followed by compound addition and incubated for 24 hrs by DCFH-DA staining based flow cytometry analysis (reference value: 0.6 %); format: functional
# ECa-109 cell line [24] = experiment: Induction of apoptosis in human EC-109 cells xenografted in BALB/c mouse assessed as increase in cleaved caspase 3 in tumor tissue at 40 mg/kg, ip QD for 14 days by Western blotting analysis relative to control; format: functional, organism-based; conditions: time 14.0 day
# ECa-109 cell line [25] = experiment: Induction of apoptosis in human EC109 cells assessed as increase in cleaved caspase 7 expression after 24 hrs by Western blot analysis; format: functional, cell-based
# [26] = Toxicity in BALB/c mouse assessed as effect on WBC level at 20 mg/kg, ip administered once daily for 14 days (reference value: 4.42 +/- 0.79 10^9/L); format: organism-based; conditions: in vivo, 336 h, time 14 day
# ECa-109 cell line [27] = experiment: Induction of morphological changes in human EC109 cells assessed as appearance of contracted and rounded cells; format: functional, cell-based
# [28] = Toxicity in BALB/c mouse assessed as HCT at 40 mg/kg, ip administered once daily for 14 days (reference value: 49.08 +/- 1.56 %); format: organism-based; conditions: in vivo, 336 h, time 14 day
# ECa-109 cell line [29] = experiment: Induction of apoptosis in human EC109 cells assessed as increase in Bad expression after 24 hrs by Western blot analysis; format: functional, cell-based
# ECa-109 cell line [30] = experiment: Antitumor activity against human EC109 cells xenografted in nude BALB/c mouse assessed as reduction in tumor weight at 40 mg/kg, ip administered every day for 14 days; format: functional, organism-based; conditions: time 14.0 day
# ECa-109 cell line [31] = experiment: Induction of apoptosis in human EC109 cells assessed as increase in BimL expression after 24 hrs by Western blot analysis; format: functional, cell-based
# ECa-109 cell line [32] = experiment: Induction of apoptosis in human EC-109 cells assessed as apoptotic rate at 3 uM after 48 hrs by Annexin V-FITC/propidium iodide staining based flow cytometry (reference value: 3.8 %); format: functional
smiles,measurement,setting,value
C=C1C(=O)[C@@]23[C@H](O)C[C@@H]4C(C)(C)CCC[C@@]4(COC(C)=O)[C@@H]2[C@@H](O)C[C@H]1[C@H]3OC(=O)c1ccc(CCl)cc1,Activity,ECa-109 cell line [1],Active
same,Activity,[2],Non-Toxic
same,Activity,ECa-109 cell line [3],inactive
same,Activity,HUVEC [4],Tde
same,Activity,ECa-109 cell line [5],Dose-dependent effect
same,Activity,ECa-109 cell line [6],47%
same,Activity,ECa-109 cell line [7],Active
same,Activity,ECa-109 cell line [8],93.1%
same,Activity,HUVEC [9],Dose-dependent effect
same,Activity,ECa-109 cell line [10],33.7%
same,Activity,[11],Non-Toxic
same,Activity,[12],Non-Toxic
same,inhibition,ECa-109 cell line [13],Tde
same,Activity,ECa-109 cell line [14],Active
same,Activity,ECa-109 cell line [15],5.6%
same,Activity,ECa-109 cell line [16],Dose-dependent effect
same,Activity,ECa-109 cell line [17],23.3%
same,IC50,MCF7,350 nM
same,Activity,ECa-109 cell line [18],Dose-dependent effect
same,Activity,ECa-109 cell line [19],Active
same,Activity,[20],14.32%
same,Activity,[21],4.21 10^9/L
same,Activity,ECa-109 cell line [22],Active
same,IC50,TE-1,270 nM
same,Activity,ECa-109 cell line [23],0.1%
same,Activity,ECa-109 cell line [24],Active
same,Activity,ECa-109 cell line [25],Dose-dependent effect
same,Activity,[26],5.02 10^9/L
same,Activity,ECa-109 cell line [27],Active
same,Activity,[28],46.26%
same,Activity,ECa-109 cell line [29],Dose-dependent effect
same,inhibition,ECa-109 cell line [30],Active
same,Activity,ECa-109 cell line [31],Dose-dependent effect
same,Activity,ECa-109 cell line [32],88.2%
